pIC50: −log10 of the molar value. Positions of bridges follow the written chain, without caps; N, C: chain ends. Non-standard residues stand in square brackets, D forms with d. Residues, ends and D or L forms follow the SMILES beside them. ξ: configuration not given here. 2Nal = N[C@@H](Cc1ccc2ccccc2c1)C(=O)O; NMeF = CN[C@@H](Cc1ccccc1)C(=O)O; NMeL = CN[C@@H](CC(C)C)C(=O)O; Thr(3ξ) = CC(O)[C@H](N)C(=O)O; Phg = N[C@H](C(=O)O)c1ccccc1; ξY = NC(Cc1ccc(O)cc1)C(=O)O; NMeA = CN[C@@H](C)C(=O)O; Nle = CCCC[C@H](N)C(=O)O; ξF = NC(Cc1ccccc1)C(=O)O; ξL = CC(C)CC(N)C(=O)O; ξC = NC(CS)C(=O)O; ξA = CC(N)C(=O)O; Sar = CNCC(=O)O
Molecular target: T1, human ROR1 (Homo sapiens, UniProt Q01973)
T1 construct: host or cells: HEK 293T cells, Tet-on system induced with doxycycline
Assay: ROR1 high content cell-based binding assay
Conditions: read-out: ROR1 Binding 293T Human HC Cell Based Assay IC50
Method in brief: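 Doxycycline-induced 293T cells expressing human ROR1, seeded overnight, were treated with compound plus 5-FAM-labeled ROR1-binding probe peptide (30 nM final) for 1 h at 37 °C. After washing and formaldehyde/Hoechst fixation, cell-bound probe fluorescence was read by high-content imaging.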

T1 sequence (Q01973 30-937): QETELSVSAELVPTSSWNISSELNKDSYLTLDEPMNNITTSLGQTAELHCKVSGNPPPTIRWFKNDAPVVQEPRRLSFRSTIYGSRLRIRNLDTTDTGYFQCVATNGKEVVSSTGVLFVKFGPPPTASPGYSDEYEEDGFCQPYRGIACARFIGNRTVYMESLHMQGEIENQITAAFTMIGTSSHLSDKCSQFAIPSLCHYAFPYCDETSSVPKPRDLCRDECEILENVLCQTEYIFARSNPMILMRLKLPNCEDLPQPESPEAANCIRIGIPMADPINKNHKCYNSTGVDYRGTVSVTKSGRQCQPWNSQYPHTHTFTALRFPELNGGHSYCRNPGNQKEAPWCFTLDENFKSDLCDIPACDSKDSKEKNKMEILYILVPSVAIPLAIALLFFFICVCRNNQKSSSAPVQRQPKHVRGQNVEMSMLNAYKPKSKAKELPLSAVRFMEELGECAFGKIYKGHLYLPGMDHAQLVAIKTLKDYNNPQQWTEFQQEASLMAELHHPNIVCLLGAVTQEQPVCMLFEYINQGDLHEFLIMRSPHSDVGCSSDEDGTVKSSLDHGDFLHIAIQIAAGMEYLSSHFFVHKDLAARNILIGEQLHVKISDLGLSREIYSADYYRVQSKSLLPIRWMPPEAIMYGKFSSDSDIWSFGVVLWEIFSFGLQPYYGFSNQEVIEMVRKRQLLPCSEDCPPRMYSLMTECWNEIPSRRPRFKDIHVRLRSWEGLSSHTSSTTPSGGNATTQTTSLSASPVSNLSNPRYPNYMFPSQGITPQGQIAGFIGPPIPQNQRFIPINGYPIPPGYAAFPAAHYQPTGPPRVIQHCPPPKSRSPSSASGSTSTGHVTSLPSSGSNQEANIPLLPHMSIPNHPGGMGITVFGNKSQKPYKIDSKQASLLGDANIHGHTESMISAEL

Structure (SMILES) | pIC50
CC(C)C[C@@H]1NC(=O)[C@H](Cc2ccc(O)cc2)NC(=O)[C@H](Cc2ccc3ccccc3c2)NC(=O)CSC[C@@H](C(=O)NCC(N)=O)NC(=O)[C@H](CC(C)C)NC(=O)[C@H](Cc2ccccc2)N(C)C(=O)[C@H](Cc2ccc(O)cc2)NC(=O)[C@H](Cc2c[nH]c3ccccc23)NC(=O)CNC(=O)[C@H](CO)NC(=O)[C@H](Cc2ccc(O)cc2)NC(=O)[C@H](C(C)C)NC1=O [Example 1092] ({CH2CO}-[2Nal]YLVYSGWY[NMeF]LCG-NH2; thioether N-12) | 7.37
CC(C)C[C@@H]1NC(=O)[C@H](Cc2ccc(O)cc2)NC(=O)[C@H](c2ccccc2)NC(=O)CSC[C@@H](C(=O)NCC(N)=O)NC(=O)[C@H](CC(C)C)NC(=O)[C@H](Cc2ccccc2)N(C)C(=O)[C@H](Cc2ccc(O)cc2)NC(=O)[C@H](Cc2c[nH]c3ccccc23)NC(=O)CNC(=O)[C@H](CO)NC(=O)[C@H](Cc2ccc(O)cc2)NC(=O)[C@H](C(C)C)NC1=O [Example 1093] ({CH2CO}-[Phg]YLVYSGWY[NMeF]LCG-NH2; thioether N-12) | 6.49
CC(C)C[C@@H]1NC(=O)[C@H](Cc2c[nH]c3ccccc23)NC(=O)[C@H](Cc2ccc(O)cc2)NC(=O)[C@H](Cc2c[nH]c3ccccc23)NC(=O)CNC(=O)[C@H](CC(=O)O)NC(=O)[C@H](Cc2ccc(O)cc2)NC(=O)[C@H](C(C)C)NC(=O)[C@@H]2CCCN2C(=O)[C@H](Cc2ccc(O)cc2)NC(=O)[C@H](Cc2ccccc2)NC(=O)CSC[C@@H](C(N)=O)NC1=O [Example 1094] ({CH2CO}-FYPVYDGWYWLC-NH2; thioether N-12) | 7.85
CC(C)C[C@@H]1NC(=O)[C@H](Cc2c[nH]c3ccccc23)NC(=O)[C@H](Cc2ccc(O)cc2)NC(=O)[C@H](Cc2c[nH]c3ccccc23)NC(=O)CNC(=O)[C@H](CO)NC(=O)[C@H](Cc2ccc(O)cc2)NC(=O)[C@H](C(C)C)NC(=O)[C@@H]2CCCN2C(=O)[C@H](Cc2ccc(O)cc2)NC(=O)[C@H](Cc2ccccc2)NC(=O)CSC[C@@H](C(N)=O)NC1=O [Example 1095] ({CH2CO}-FYPVYSGWYWLC-NH2; thioether N-12) | 7.96
CCCC[C@@H]1NC(=O)[C@H](Cc2ccc(O)cc2)NC(=O)[C@H](Cc2c[nH]c3ccccc23)NC(=O)[C@H](C)N(C)C(=O)[C@H](CCCNC(=N)N)NC(=O)[C@H](CO)NC(=O)[C@H](CO)NC(=O)[C@H](Cc2c[nH]c3ccccc23)NC(=O)[C@H](Cc2ccc(O)cc2)NC(=O)[C@H](Cc2ccccc2)NC(=O)CSC[C@@H](C(N)=O)NC(=O)[C@H](CC(C)C)N(C)C1=O [Example 1096] ({CH2CO}-FYWSSR[NMeA]WY[Nle][NMeL]C-NH2; thioether N-12) | 8.40
CC(C)[C@@H]1NC(=O)CN(C)C(=O)[C@H](CCCNC(=N)N)NC(=O)[C@H](Cc2ccccc2)NC(=O)CSC[C@@H](C(N)=O)NC(=O)[C@H](C(C)C)NC(=O)[C@H](Cc2c[nH]c3ccccc23)NC(=O)[C@H](Cc2ccc(O)cc2)NC(=O)[C@H](Cc2c[nH]c3ccccc23)NC(=O)CNC(=O)[C@H](Cc2c[nH]c3ccccc23)NC(=O)[C@H](CCCNC(=N)N)NC1=O [Example 1097] ({CH2CO}-FR[Sar]VRWGWYWVC-NH2; thioether N-12) | 7.20
CC(C)C[C@@H]1NC(=O)[C@H](CC(N)=O)NC(=O)[C@H](Cc2ccccc2)N(C)C(=O)CNC(=O)[C@H](Cc2ccc(O)cc2)NC(=O)[C@H](Cc2ccccc2)NC(=O)CSC[C@@H](C(=O)NCC(N)=O)NC(=O)[C@H](Cc2c[nH]c3ccccc23)NC(=O)[C@H](Cc2ccc(O)cc2)NC1=O [Example 1100] ({CH2CO}-FYG[NMeF]NLYWCG-NH2; thioether N-9) | 6.92
CC(C)C[C@@H]1NC(=O)[C@H](Cc2ccccc2)NC(=O)[C@H](Cc2ccccc2)N(C)C(=O)CNC(=O)[C@H](Cc2ccc(O)cc2)NC(=O)[C@H](Cc2ccccc2)NC(=O)CSC[C@@H](C(N)=O)NC(=O)[C@H](Cc2c[nH]c3ccccc23)NC(=O)[C@H](Cc2ccc(O)cc2)NC1=O [Example 1102] ({CH2CO}-FYG[NMeF]FLYWC-NH2; thioether N-9) | 7.01
CN1C(=O)CNC(=O)[C@H](Cc2ccc(O)cc2)NC(=O)[C@H](Cc2ccccc2)NC(=O)CSC[C@@H](C(N)=O)NC(=O)[C@H](Cc2c[nH]c3ccccc23)NC(=O)[C@H](Cc2ccc(O)cc2)NC(=O)[C@H](Cc2ccccc2)NC(=O)[C@H](CC(N)=O)NC(=O)[C@@H]1Cc1ccccc1 [Example 1103] ({CH2CO}-FYG[NMeF]NFYWC-NH2; thioether N-9) | 6.03
CC(C)C[C@@H]1NC(=O)[C@H](CC(N)=O)NC(=O)[C@H](Cc2ccccc2)N(C)C(=O)CNC(=O)[C@H](Cc2ccc(O)cc2)NC(=O)[C@H](Cc2ccccc2)NC(=O)CSCC(C(N)=O)NC(=O)[C@H](Cc2c[nH]c3ccccc23)NC(=O)[C@H](Cc2ccccc2)NC1=O (some centres unmarked) [Example 1104] ({CH2CO}-FYG[NMeF]NLFW[ξC]-NH2; thioether N-9) | 7.51
CC(C)C[C@@H]1NC(=O)CNC(=O)[C@H](Cc2ccccc2)N(C)C(=O)CNC(=O)[C@H](Cc2ccc(O)cc2)NC(=O)[C@H](Cc2ccccc2)NC(=O)CSC[C@@H](C(N)=O)NC(=O)[C@H](Cc2c[nH]c3ccccc23)NC(=O)[C@H](Cc2ccc(O)cc2)NC1=O [Example 1105] ({CH2CO}-FYG[NMeF]GLYWC-NH2; thioether N-9) | 6.17
CC(C)C[C@@H]1NC(=O)[C@H](CC(C)C)NC(=O)[C@H](Cc2ccccc2)N(C)C(=O)CNC(=O)[C@H](Cc2ccc(O)cc2)NC(=O)[C@H](Cc2ccccc2)NC(=O)CSC[C@@H](C(N)=O)NC(=O)[C@H](Cc2c[nH]c3ccccc23)NC(=O)[C@H](Cc2ccc(O)cc2)NC1=O [Example 1106] ({CH2CO}-FYG[NMeF]LLYWC-NH2; thioether N-9) | 6.32
CC(C)C[C@@H]1NC(=O)C(C)NC(=O)[C@H](Cc2ccccc2)N(C)C(=O)CNC(=O)[C@H](Cc2ccc(O)cc2)NC(=O)[C@H](Cc2ccccc2)NC(=O)CSC[C@@H](C(N)=O)NC(=O)[C@H](Cc2c[nH]c3ccccc23)NC(=O)[C@H](Cc2ccc(O)cc2)NC1=O (some centres unmarked) [Example 1107] ({CH2CO}-FYG[NMeF][ξA]LYWC-NH2; thioether N-9) | 6.26
CC(C)C[C@@H]1NC(=O)[C@H](CC(N)=O)NC(=O)[C@H](Cc2ccccc2)N(C)C(=O)CNC(=O)[C@H](Cc2ccccc2)NC(=O)[C@H](Cc2ccccc2)NC(=O)CSC[C@@H](C(N)=O)NC(=O)[C@H](Cc2c[nH]c3ccccc23)NC(=O)[C@H](Cc2ccc(O)cc2)NC1=O [Example 1108] ({CH2CO}-FFG[NMeF]NLYWC-NH2; thioether N-9) | 6.39
CSCC[C@@H]1NC(=O)[C@H](Cc2ccccc2)N(C)C(=O)CNC(=O)[C@H](Cc2ccc(O)cc2)NC(=O)[C@H](Cc2ccccc2)NC(=O)CSC[C@@H](C(N)=O)NC(=O)[C@H](Cc2c[nH]c3ccccc23)NC(=O)[C@H](Cc2ccc(O)cc2)NC(=O)[C@H](CC(C)C)NC1=O [Example 1109] ({CH2CO}-FYG[NMeF]MLYWC-NH2; thioether N-9) | 6.24
CC(C)C[C@@H]1NC(=O)[C@H](CCC(N)=O)NC(=O)[C@H](Cc2ccccc2)N(C)C(=O)CNC(=O)[C@H](Cc2ccc(O)cc2)NC(=O)[C@H](Cc2ccccc2)NC(=O)CSC[C@@H](C(N)=O)NC(=O)[C@H](Cc2c[nH]c3ccccc23)NC(=O)[C@H](Cc2ccc(O)cc2)NC1=O [Example 1110] ({CH2CO}-FYG[NMeF]QLYWC-NH2; thioether N-9) | 6.44
CC(C)C[C@@H]1NC(=O)[C@H](CO)NC(=O)[C@H](Cc2ccccc2)N(C)C(=O)CNC(=O)[C@H](Cc2ccc(O)cc2)NC(=O)[C@H](Cc2ccccc2)NC(=O)CSC[C@@H](C(N)=O)NC(=O)[C@H](Cc2c[nH]c3ccccc23)NC(=O)[C@H](Cc2ccc(O)cc2)NC1=O [Example 1111] ({CH2CO}-FYG[NMeF]SLYWC-NH2; thioether N-9) | 6.32
CC(C)C[C@@H]1NC(=O)[C@H](Cc2ccc(O)cc2)NC(=O)[C@H](Cc2ccccc2)N(C)C(=O)CNC(=O)[C@H](Cc2ccc(O)cc2)NC(=O)C(Cc2ccccc2)NC(=O)CSC[C@@H](C(=O)NCC(N)=O)NC(=O)[C@H](Cc2c[nH]c3ccccc23)NC(=O)C(Cc2ccc(O)cc2)NC1=O (some centres unmarked) [Example 1112] ({CH2CO}-[ξF]YG[NMeF]YL[ξY]WCG-NH2; thioether N-9) | 6.83
CC(C)CC1NC(=O)[C@H](Cc2ccc(O)cc2)NC(=O)[C@H](Cc2ccccc2)NC(=O)CSC[C@@H](C(=O)NCC(N)=O)NC(=O)[C@H](Cc2ccccc2)N(C)C(=O)[C@H](Cc2ccc(O)cc2)NC(=O)[C@H](Cc2c[nH]c3ccccc23)NC(=O)C(Cc2ccc(O)cc2)NC(=O)[C@H](C(C)C)NC1=O (some centres unmarked) [Example 1113] ({CH2CO}-FY[ξL]V[ξY]WY[NMeF]CG-NH2; thioether N-9) | 7.00
CC(C)C[C@@H]1NC(=O)[C@H](C(C)O)NC(=O)[C@H](Cc2ccccc2)N(C)C(=O)CNC(=O)[C@H](Cc2ccc(O)cc2)NC(=O)[C@H](Cc2ccccc2)NC(=O)CSC[C@@H](C(N)=O)NC(=O)[C@H](Cc2c[nH]c3ccccc23)NC(=O)[C@H](Cc2ccc(O)cc2)NC1=O (some centres unmarked) [Example 1114] ({CH2CO}-FYG[NMeF][Thr(3ξ)]LYWC-NH2; thioether N-9) | 6.33
CC(C)C[C@@H]1NC(=O)[C@H](Cc2ccc(O)cc2)NC(=O)[C@H](Cc2ccccc2)N(C)C(=O)CNC(=O)[C@H](Cc2ccc(O)cc2)NC(=O)[C@H](Cc2ccccc2)NC(=O)CSC[C@@H](C(N)=O)NC(=O)[C@H](Cc2c[nH]c3ccccc23)NC(=O)[C@H](Cc2ccc(O)cc2)NC1=O [Example 1115] ({CH2CO}-FYG[NMeF]YLYWC-NH2; thioether N-9) | 7.03
CC(C)C[C@@H]1NC(=O)[C@@H](C)NC(=O)[C@H](Cc2ccccc2)N(C)C(=O)CNC(=O)[C@H](Cc2ccc(O)cc2)NC(=O)[C@H](Cc2ccccc2)NC(=O)CSC[C@@H](C(N)=O)NC(=O)[C@H](Cc2c[nH]c3ccccc23)NC(=O)[C@H](Cc2ccc(O)cc2)NC1=O [Example 1116] ({CH2CO}-FYG[NMeF][dA]LYWC-NH2; thioether N-9) | 6.74
CC(C)C[C@@H]1NC(=O)[C@H](Cc2c[nH]cn2)NC(=O)[C@H](Cc2ccccc2)N(C)C(=O)CNC(=O)[C@H](Cc2ccc(O)cc2)NC(=O)[C@@H](Cc2ccccc2)NC(=O)CSC[C@@H](C(N)=O)NC(=O)[C@H](Cc2c[nH]c3ccccc23)NC(=O)[C@H](Cc2ccc(O)cc2)NC1=O [Example 1117] ({CH2CO}-[dF]YG[NMeF]HLYWC-NH2; thioether N-9) | 7.16

— US20240116988A1, “ANTI-ROR1 MACROCYCLIC PEPTIDES AND COMPOSITIONS” (BRISTOL-MYERS SQUIBB COMPANY, priority 2022, published 2024)
